We go through 15 molecules from ChEMBL document CHEMBL1142840, “4-Phenylcoumarins as HIV transcription inhibitors” (Bioorg Med Chem Lett, 2005).

Experiment [1] deals with HeLa. The experiment can be described thus: Anti-HIV activity (at 50 uM) against human HeLa-Tat-Luc cells transfected with HIV-1 LTR activated by Tat protein. Format: functional.
In another experiment the test system is MT2. Kind of experiment: Toxicity of compound against human MT-2 cell line at the concentration of 50 uM. Format: functional.
The nature of experiment [2]: Anti-HIV activity (at 50 uM) against Jurkat-derived 5.1 cell line stably transfected with HIV-LTR activated by TNF alpha. In kind it is functional.
For experiment [3], the system named is HeLa. Kind of experiment: Anti-HIV activity (at 50 uM) against human HeLa cells through a HeLa-Tet-ON assay; U= unspecific. Format: functional, cell-based.
Experiment [4] in a line: Anti-HIV activity (at 25 uM) against Jurkat-derived 5.1 cell line stably transfected with HIV-LTR activated by TNF alpha. In kind it is functional.
The target in experiment [5] is Human immunodeficiency virus type 1 reverse transcriptase (Human immunodeficiency virus 1, UniProt Q72547). Kind of experiment: Inhibitory concentration against recombinant human immunodeficiency virus 1 reverse transcriptase.
Experiment [6] deals with HeLa. Kind of experiment: Anti-HIV activity (at 50 uM) against human HeLa cells through a HeLa-Tet-ON assay; S= specific. In kind it is functional, cell-based.
For experiment [7], the system named is HeLa. Kind of experiment: Anti-HIV activity (at 25 uM) against human HeLa-Tat-Luc cells transfected with HIV-1 LTR activated by Tat protein. In kind it is functional.
Experiment [8] relates to HeLa. Kind of experiment: Anti-HIV activity (at 50 uM) against human HeLa cells through a HeLa-Tet-ON assay; U= specific. In kind it is functional, cell-based.

The term inhibition denotes the share of the control response that was lost under treatment. A low value points to little suppression. For `CC(=O)Oc1c(C(=O)CC(C)C)c(OC(C)=O)c2c(-c3ccccc3)cc(=O)oc2c1CC=C(C)C` [MAMMEISIN DIACETATE], the inhibition at 50 µM in the experiment on HeLa [1] was determined as 50.4%; in [2] it was 81.1%. The molecule further came in with a Cell death in the experiment on MT2 of 15.7%. The inhibition result in the experiment with HeLa [3] is listed as “Unspecific”.
The corresponding values for `CCC(C)C(=O)c1c(O)c(CC=C(C)C)c2oc(=O)cc(-c3ccccc3)c2c1O` (stereo not drawn) are 86.7%, 85.2%, 28.8% and “Unspecific”.
The corresponding values for `CC(C)C(=O)c1c2c(c3oc(=O)cc(-c4ccccc4)c3c1O)C[C@@H](C(C)(C)O)O2` [MESUOL CYCLO F] are 59.5%, 59.4%, 79.5% and “Unspecific”.
A word on the IC50: it is the point on the concentration scale where inhibition reaches its midpoint. Regarding `CC(C)=CCc1c(O)cc(O)c2c(-c3ccccc3)cc(=O)oc12`, testing at 25 µM in experiment [4] gave an inhibition of 33.4%. Also, the inhibition at 50 µM turned out to be 15.4% with HeLa [1] and 84.5% in experiment [2]. The Cell death in the experiment with MT2 is reported as 34.4%. Moreover, the concentration for half-maximal inhibition (IC50) in experiment [5] amounted to 11.2 µM.
On to `CC(C)=CCc1c(O)c(C(=O)C(C)C)c2oc(=O)cc(-c3ccccc3)c2c1O` [ISOMESUOL], for which the inhibition at 25 µM worked out at 67% in experiment [4] and 36.7% with HeLa [7]. For the same molecule, the inhibition at 50 µM with HeLa [1] was found to be 34.3%; in experiment [2] it was 67.1%. Besides, in the experiment on MT2, the Cell death is 11.5%. In addition, in the experiment on HeLa [6], the inhibition result is listed as “Specific”. The concentration for half-maximal inhibition (IC50) in experiment [5] stood at 31.9 µM.
Turning to `CC(C)C(=O)c1c2c(c3oc(=O)cc(-c4ccccc4)c3c1O)C=CC(C)(C)O2` [MESUAGIN], the values for the inhibition at 25 µM (in experiment [4]; in the experiment on HeLa [7]) were 10.8% and 0%, respectively. Further, the inhibition at 50 µM in the experiment on HeLa [1] was 0%; in experiment [2] it was 20.2%. In the experiment with MT2, this molecule registered a Cell death of 4.5%. Further, in experiment [5], the IC50 was determined as 32.1 µM.
For `CC(C)CC(=O)c1c2c(c3oc(=O)cc(-c4ccccc4)c3c1O)C[C@@H](C(C)(C)O)O2` [CYCLOMAMMEISIN], the inhibition at 25 µM in [4] was found to be 66.9%. Moreover, the inhibition at 50 µM in the experiment with HeLa [1] was determined as 22%; in [2], 86.3%. For the same molecule, in the experiment on MT2, the Cell death came out at 34.1%. In the experiment with HeLa [3], the inhibition entry is reported as “Unspecific”.
In turn, `CC1CN(C2CC(N=[N+]=[N-])[C@@H](CO)C2)C(=O)NC1=O` (stereo partly drawn) showed a Cell death with MT2 greater than 100%. The IC50 in experiment [5] amounted to 0.01 µM.
On to `COc1c(C(=O)CC(C)C)c(O)c(CC=C(C)C)c2oc(=O)cc(-c3ccccc3)c12`, for which the inhibition at 50 µM in the experiment with HeLa [1] was 13.5%; in experiment [2] it was 43.6%. This molecule had a Cell death with MT2 of 4.8%. Moreover, the IC50 in experiment [5] came to 22.2 µM.
On to `CC(C)=C(O)Cc1c(O)c(C(=O)CC(C)C)c(O)c2c(-c3ccccc3)cc(=O)oc12`, for which the results for the inhibition at 25 µM (in [4]; in the experiment on HeLa [7]) were 55.4% and 43.6%, respectively. In addition, the results for the inhibition at 50 µM (in the experiment with HeLa [1]; in [2]) were 70.4% and 53.1%, respectively. The molecule further had a Cell death with MT2 of 18.5%. Further, in the experiment with HeLa [6], the inhibition entry was “Specific”. Besides, the IC50 in experiment [5] was 0.5 µM.
With `CC(C)CC(=O)c1c2c(c3oc(=O)cc(-c4ccccc4)c3c1O)C=CC(C)(C)O2` [MAMMEIGIN], the values for the inhibition at 25 µM (in [4]; in the experiment on HeLa [7]) were 5.9% and 2%, respectively. Also, the results for the inhibition at 50 µM (in the experiment with HeLa [1]; in experiment [2]) were 3% and 15.7%, respectively. This molecule also yielded a Cell death with MT2 of 4.7%. Besides, in experiment [5], the IC50 is 124 µM.
In the case of `CC(C)=CCc1c(O)c(C(O)CC(C)C)c(O)c2c(-c3ccccc3)cc(=O)oc12` (stereo not drawn), the inhibition at 50 µM came out at 47.6% in the experiment with HeLa [1] and 60% in [2]. The same molecule gave a Cell death in the experiment on MT2 of 8%. Moreover, the inhibition result in the experiment with HeLa [3] is “Unspecific”.
The matching figures for `CC(C)=CCc1c(O)c(C(=O)CC(C)C)c(O)c2c(-c3ccccc3)cc(=O)oc12` [MAMMEISIN]: 53.1%, 58.8%, 16.6% and “Unspecific”.
Regarding `CC(C)CC(=O)c1c(O)cc(O)c2c(-c3ccccc3)cc(=O)oc12` [ISODISPAR B], the inhibition at 25 µM in experiment [4] stood at 81%; in the experiment on HeLa [7], 42%. Moreover, the inhibition at 50 µM with HeLa [1] is 69.4%; in experiment [2], 85.6%. In the experiment with MT2, this molecule had a Cell death of 17.2%. Also, in the experiment on HeLa [6], the inhibition result is “Specific”. In addition, the half-maximal inhibitory concentration (IC50) in experiment [5] worked out at 6.9 µM.
Broadly, the Inhibition is how much of the control response was suppressed. A low value points to a response near the control. In [4], `CC(C)=CCc1c(O)c(C(=O)C(C)C)c(O)c2c(-c3ccccc3)cc(=O)oc12` [MESUOL] registered an Inhibition of 71%. Also, the inhibition at 25 µM was 67.1% in [4] and 11.5% in the experiment on HeLa [7]. Further, the inhibition at 50 µM in the experiment on HeLa [1] amounted to 71.3%; in experiment [2] it was 77.9%. Further, the inhibition result in the experiment on HeLa [8] was “Specific”; in the experiment on HeLa [3], “Unspecific”. In the experiment on MT2, this molecule displayed a Cell death of 22.5%. In addition, the IC50 in experiment [5] was determined as 2.5 µM.
